Results as given in patent publication US20250230193A1, “CYCLIC COMPOUND HAVING SELECTIVE KRAS INHIBITORY EFFECT ON HRAS AND NRAS” (CHUGAI SEIYAKU KABUSHIKI KAISHA, priority 2022, published 2025).
Where a SMILES comes first, the peptide text is derived from it. Bridges are numbered along the chain shown (N, C = ends). [ ]: non-standard residue; d: D form. The star is where a group is joined. hPhe(3-Cl-4-CF3) = N[C@@H](CCc1ccc(C(F)(F)F)c(Cl)c1)C(=O)O; NPrPhe(4-CF3) = CCCN[C@@H](Cc1ccc(C(F)(F)F)cc1)C(=O)O; NMeGly(cPent) = CN[C@H](C(=O)O)C1CCCC1; NMeNva(3-Et) = CCC(CC)[C@H](NC)C(=O)O; NMeD = CN[C@@H](CC(=O)O)C(=O)O; Ac4c(3-oxa) = NC1(C(=O)O)COC1; NMeL = CN[C@@H](CC(C)C)C(=O)O; Morpholide = C1CN(*)CCO1; Ac4c = NC1(C(=O)O)CCC1; Sar = CNCC(=O)O

What was measured:
[1] = molecular target: GDP-bound HRAS wild-type protein (Homo sapiens, UniProt P01112); assay: Binding to HRAS by surface plasmon resonance (SPR), Single Cycle Kinetics; conditions: SPR; for HRAS/KRAS (ratio of KD value with respect to HRAS to KD value with respect to KRAS) / HRAS/KRAS (ratio of KD value for HRAS to KD value for KRAS): GDP-bound HRAS wild-type vs GDP-bound KRAS wild-type
[2] = molecular target: GDP-bound NRAS wild-type protein (Homo sapiens, UniProt P01111); assay: Binding to NRAS by surface plasmon resonance (SPR), Single Cycle Kinetics; conditions: SPR; for NRAS/KRAS (ratio of KD value with respect to NRAS to KD value with respect to KRAS) / NRAS/KRAS (ratio of KD value for NRAS to KD value for KRAS): GDP-bound NRAS wild-type vs GDP-bound KRAS wild-type
Chain of GDP-bound NRAS wild-type protein (P01111 whole entry): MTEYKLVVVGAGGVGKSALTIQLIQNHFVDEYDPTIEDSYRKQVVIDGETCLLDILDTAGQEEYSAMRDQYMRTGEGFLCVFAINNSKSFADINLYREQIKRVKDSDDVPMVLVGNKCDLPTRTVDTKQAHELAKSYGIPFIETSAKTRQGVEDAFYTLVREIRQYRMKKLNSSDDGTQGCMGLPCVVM

Chain of GDP-bound HRAS wild-type protein (P01112 whole entry): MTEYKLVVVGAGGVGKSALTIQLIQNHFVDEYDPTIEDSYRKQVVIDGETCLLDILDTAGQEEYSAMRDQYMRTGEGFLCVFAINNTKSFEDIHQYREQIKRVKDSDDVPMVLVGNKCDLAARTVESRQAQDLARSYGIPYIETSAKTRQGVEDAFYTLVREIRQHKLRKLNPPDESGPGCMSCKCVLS

**Q.** Which results are given for `CC[C@H](C)[C@@H]1NC(=O)[C@H](CC(C)C)N(C)C(=O)C[C@@H](C(=O)N2CCOCC2)N(C)C(=O)[C@H](C2CCCC2)N(C)C(=O)C2(CCCC2)NC(=O)[C@@H]2CCCN2C(=O)[C@H](CCc2ccc(C(F)(F)F)c(Cl)c2)NC(=O)CN(C)C(=O)[C@H](Cc2ccc(OC)cc2)N2CC=CC[C@@H](C2=O)N(C)C(=O)CN(C)C1=O` [PP0535]?
**A.** HRAS/KRAS (ratio of KD value with respect to GDP-bound HRAS wild-type protein to KD value with respect to KRAS) [1]: B (a compound having 3 or more and less than 10 is denoted as B); NRAS/KRAS (ratio of KD value with respect to GDP-bound NRAS wild-type protein to KD value with respect to KRAS) [2]: C (A compound having a KD ratio of 0.1 or more and less than 3 is denoted as C)

**Q.** How did the “HRAS/KRAS (ratio of KD value with respect to GDP-bound HRAS wild-type protein to KD value with respect to KRAS)” value [1] turn out when `CC(C)C[C@H]1C(=O)N[C@@H](C2CCC2)C(=O)N(C)CC(=O)N(C)[C@H]2CCCCCN(C2=O)[C@@H](Cc2ccc(C(F)(F)F)cc2)C(=O)N(C)CC(=O)N[C@@H](CCc2cc(F)c(C(F)(F)F)c(F)c2)C(=O)N2CCC[C@H]2C(=O)NC2(CCCC2)C(=O)N(C)[C@@H](C2CCCC2)C(=O)N(C)[C@H](C(=O)N2CCOCC2)CC(=O)N1C` [PP0522] was run?
**A.** The value was “B (a compound having 3 or more and less than 10 is denoted as B)”.

**Q.** What about the “NRAS/KRAS (ratio of KD value with respect to GDP-bound NRAS wild-type protein to KD value with respect to KRAS)” value [2] of the same compound?
**A.** Its value is “B (a compound having 3 or more and less than 10 is denoted as B)”.

**Q.** `CC[C@H](C)[C@@H]1NC(=O)[C@H](CC(C)C)N(C)C(=O)C[C@@H](C(=O)N2CCOCC2)N(C)C(=O)[C@H](C2CCCC2)N(C)C(=O)C2(CCC2)NC(=O)[C@@H]2C[C@@H](OCC3CC3)CN2C(=O)[C@H](CCc2cc(F)c(C(F)(F)F)c(F)c2)NC(=O)CN(C)C(=O)[C@H](Cc2ccc(C(F)(F)F)cc2)N2CCCCC[C@@H](C2=O)N(C)C(=O)CN(C)C1=O` [PP1005] was tested. Which “HRAS/KRAS (ratio of KD value with respect to HRAS to KD value with respect to KRAS)” value [1] did it give?
**A.** Its value is “A (a compound having 10 or more and less than 20 is denoted as A)”.

**Q.** What about the “NRAS/KRAS (ratio of KD value with respect to NRAS to KD value with respect to KRAS)” value [2] of the same compound?
**A.** The value was “A (a compound having 10 or more and less than 20 is denoted as A)”.

**Q.** Which “HRAS/KRAS (ratio of KD value for HRAS to KD value for KRAS)” value [1] does the source give for `CCCN1C(=O)CN(C)C(=O)CN(C)C(=O)[C@H]([C@@H](C)CC)NC(=O)[C@H](CC(C)C)N(C)C(=O)C[C@@H](C(=O)N2CCOCC2)N(C)C(=O)[C@H](C2CCCC2)N(C)C(=O)C2(COC2)NC(=O)[C@@H]2CCCN2C(=O)[C@H](CCc2ccc(C(F)(F)F)c(Cl)c2)NC(=O)CN(C)C(=O)[C@@H]1Cc1ccc(C(F)(F)F)cc1` [PP1922] ([NMeL]I[Sar][Sar][NPrPhe(4-CF3)][Sar][hPhe(3-Cl-4-CF3)]P[Ac4c(3-oxa)][NMeGly(cPent)][NMeD]-Morpholide; lactam N-11) here?
**A.** Its value is “C (A compound having a KD ratio of 0.1 or more and less than 3 is denoted as C)”.

**Q.** And the “NRAS/KRAS (ratio of KD value for NRAS to KD value for KRAS)” value [2]?
**A.** The value was “B (a compound having 3 or more and less than 10 is denoted as B)”.

**Q.** Which results are given for `CC[C@H](C)[C@@H]1NC(=O)[C@H](CC(C)C)N(C)C(=O)C[C@@H](C(=O)N2CCCC2)N(C)C(=O)[C@H](C2CCCC2)N(C)C(=O)C2(CCCC2)NC(=O)[C@@H]2CCCN2C(=O)[C@H](CCc2cc(F)c(C(F)(F)F)c(F)c2)NC(=O)CN(C)C(=O)[C@H](Cc2ccc(C(F)(F)F)cc2)N2CCCC[C@@H](C2=O)N(C)C(=O)CN(C)C1=O` [PP0571]?
**A.** HRAS/KRAS (ratio of KD value with respect to GDP-bound HRAS wild-type protein to KD value with respect to KRAS) [1]: B (a compound having 3 or more and less than 10 is denoted as B); NRAS/KRAS (ratio of KD value with respect to GDP-bound NRAS wild-type protein to KD value with respect to KRAS) [2]: B (a compound having 3 or more and less than 10 is denoted as B)

**Q.** What does the source list for `CCO[C@@H]1C[C@H]2C(=O)NC3(CCC3)C(=O)N(C)[C@@H](C3CCCC3)C(=O)N(C)[C@H](C(=O)N3CCOCC3)CC(=O)N(C)[C@@H](Cc3ccccc3Cl)C(=O)N[C@@H]([C@@H](C)CC)C(=O)N(C)CC(=O)N(C)[C@H]3CCCCCN(C3=O)[C@@H](Cc3ccc(C(F)(F)F)cc3)C(=O)N(C)CC(=O)N[C@@H](CCc3cc(F)c(C(F)(F)F)c(F)c3)C(=O)N2C1` [PP0929]?
**A.** HRAS/KRAS (ratio of KD value with respect to HRAS to KD value with respect to KRAS) [1]: B (a compound having 3 or more and less than 10 is denoted as B); NRAS/KRAS (ratio of KD value with respect to NRAS to KD value with respect to KRAS) [2]: A (a compound having 10 or more and less than 20 is denoted as A)

**Q.** How did the “HRAS/KRAS (ratio of KD value for HRAS to KD value for KRAS)” value [1] turn out when `CCCN1C(=O)CN(C)C(=O)CN(C)C(=O)[C@H]([C@@H](C)CC)NC(=O)[C@H](CC(C)C)N(C)C(=O)C[C@@H](C(=O)N2CCOCC2)N(C)C(=O)[C@H](C(CC)CC)N(C)C(=O)C2(CCC2)NC(=O)[C@@H]2CCCN2C(=O)[C@H](CCc2ccc(C(F)(F)F)c(Cl)c2)NC(=O)CN(C)C(=O)[C@@H]1Cc1ccc(C(F)(F)F)cc1` [PP1958] ([NMeL]I[Sar][Sar][NPrPhe(4-CF3)][Sar][hPhe(3-Cl-4-CF3)]P[Ac4c][NMeNva(3-Et)][NMeD]-Morpholide; lactam N-11) was run?
**A.** The value was “B (a compound having 3 or more and less than 10 is denoted as B)”.

**Q.** And the “NRAS/KRAS (ratio of KD value for NRAS to KD value for KRAS)” value [2]?
**A.** The value was “B (a compound having 3 or more and less than 10 is denoted as B)”.
